Experimental data as given in paper PMC12375005 (Communications Biology, 2025).

Assays:
TcCCE34 = test: inhibition of alpha-naphthyl acetate hydrolysis; assay type: biochemical, Tetranychus cinnabarinus; details: 3 × 10^−4 mol/L alpha-naphthyl acetate; 10 min preincubation 30 °C; 5% acetone
TcGSTm8 = target: T1, TcGSTm8 (Tetranychus cinnabarinus, UniProt U5YE47); test: inhibition of CDNB conjugation; assay type: biochemical; details: 6 mM GSH; 0.6 mM CDNB; 10 min preincubation 25 °C; 5% acetone
T1 sequence (U5YE47 1-227): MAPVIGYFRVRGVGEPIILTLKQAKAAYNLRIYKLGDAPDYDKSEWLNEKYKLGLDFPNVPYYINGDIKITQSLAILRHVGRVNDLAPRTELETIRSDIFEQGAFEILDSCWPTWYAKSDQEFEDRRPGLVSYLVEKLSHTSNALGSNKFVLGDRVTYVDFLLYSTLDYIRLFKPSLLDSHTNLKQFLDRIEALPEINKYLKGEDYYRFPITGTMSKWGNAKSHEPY

SMILES	IC50 (TcCCE34)	IC50 (TcGSTm8)
CC1(C)C(C(=O)OC(C#N)c2cccc(Oc3ccccc3)c2)C1(C)C (stereo not drawn) [fenpropathrin]	42.5 ± 8.44 µM	1090 ± 50 µM
COCCOC(=O)C(C#N)(C(=O)c1ccccc1C(F)(F)F)c1ccc(C(C)(C)C)cc1 (stereo not drawn) [cyflumetofen]	630 ± 39.8 µM	1570 ± 110 µM
CCOP(=S)(OCC)Oc1nc(Cl)c(Cl)cc1Cl [chlorpyrifos]	57.2 ± 7.42 µM	1180 ± 90 µM
